Reference: patent publication US10125100B2, “Kinase inhibitors” (Respivert Limited, priority 2014, dated 2018)

Tests used:
[1] = Hydrolytic stability study; type: physicochemical; conditions: DMSO/water (3:1); for % Parent Remaining: 1 mg/mL
Experimental: Chemical stability of compounds of the invention was assessed in a mixture of DMSO and water (3:1) at a test compound concentration of 1 mg/mL.
General HPLC Procedure • Agilent, Waters X-Select C18, 2.5 μm, 4.6×30 mm column, 4 min method, 5-95% MeCN/water (0.1% formic acid). Flow rate 2.5 mL/min. Column Oven Temperature 40° C. Detection 254 nm.
Sample Preparation • A 1.0 mg sample of test compound was dissolved in 750 μL of DMSO. Water (250 μL) was added slowly, ensuring no precipitation occurred.
Recording Stability • A 50 μL aliquot of the test solution was removed and analysed in duplicate by 5 μL HPLC injections. The peak area for the test compound was recorded following manual integration of the corresponding UV trace. • The test solution was heated to 60° C., with stirring, and 50 μL aliquots removed for HPLC analysis at 5 and 24 h timepoints.

Syk = Syk (Homo sapiens (Human), UniProt P43405); assay: Syk enzyme inhibition, Z-LYTE FRET; type: biochemical
Outline: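 Syk or c-Src enzyme (3000 or 2000 ng/mL solutions) was preincubated 2 h at RT with compound solutions at 1, 0.1, 0.01 or 0.001 µg/mL. Z-LYTE FRET peptide (8 µM solution) and ATP (800 µM solution for c-Src, 60 µM for Syk) were then added for 1 h, followed by protease development for 1 h. Phosphorylation was read as the coumarin/fluorescein emission ratio.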

B-Raf = B-Raf (Homo sapiens (Human), UniProt P15056); assay: KINOMEscan binding of kinase to standard ligand; conditions: KINOMEscan technology
B-Raf, sequence (P15056 whole entry): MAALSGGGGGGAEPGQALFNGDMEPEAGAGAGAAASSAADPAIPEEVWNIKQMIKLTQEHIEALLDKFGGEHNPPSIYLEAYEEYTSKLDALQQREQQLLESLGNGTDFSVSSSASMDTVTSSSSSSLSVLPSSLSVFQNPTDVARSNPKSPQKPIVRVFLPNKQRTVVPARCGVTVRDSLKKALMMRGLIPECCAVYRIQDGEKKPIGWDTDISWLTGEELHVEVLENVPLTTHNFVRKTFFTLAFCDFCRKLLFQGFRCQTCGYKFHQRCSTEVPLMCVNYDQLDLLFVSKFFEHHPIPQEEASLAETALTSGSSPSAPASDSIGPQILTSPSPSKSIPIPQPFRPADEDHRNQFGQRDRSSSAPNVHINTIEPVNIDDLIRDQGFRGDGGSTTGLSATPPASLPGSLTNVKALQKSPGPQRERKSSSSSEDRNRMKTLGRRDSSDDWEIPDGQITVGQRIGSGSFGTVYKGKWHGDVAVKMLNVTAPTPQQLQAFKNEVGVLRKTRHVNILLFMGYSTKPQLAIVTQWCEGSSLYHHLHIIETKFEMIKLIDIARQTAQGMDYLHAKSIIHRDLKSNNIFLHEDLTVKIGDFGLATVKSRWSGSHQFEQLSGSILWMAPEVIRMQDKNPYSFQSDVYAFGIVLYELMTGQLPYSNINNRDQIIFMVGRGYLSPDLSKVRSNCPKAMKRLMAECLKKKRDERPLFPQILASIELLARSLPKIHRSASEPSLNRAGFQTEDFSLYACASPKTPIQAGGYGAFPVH
Excerpt: (§1) These assays may be conducted by DiscoverX (formerly Ambit; San Diego, Calif.).

B-Raf (V600E) = B-Raf (V600E) (Homo sapiens (Human), UniProt P15056, V600E); assay: KINOMEscan binding of kinase to standard ligand; conditions: KINOMEscan technology
B-Raf (V600E), sequence (P15056 whole entry V600E): as the sequence (P15056 whole entry) above, with V600E counted along it
Excerpt: as §1

p38 MAPKα (MAPK14) = p38 MAPKα (MAPK14) (Homo sapiens (Human), UniProt Q16539); assay: p38 MAPKα enzyme inhibition (Method 2), Z-LYTE FRET; type: biochemical
p38 MAPKα (MAPK14), sequence (Q16539 whole entry): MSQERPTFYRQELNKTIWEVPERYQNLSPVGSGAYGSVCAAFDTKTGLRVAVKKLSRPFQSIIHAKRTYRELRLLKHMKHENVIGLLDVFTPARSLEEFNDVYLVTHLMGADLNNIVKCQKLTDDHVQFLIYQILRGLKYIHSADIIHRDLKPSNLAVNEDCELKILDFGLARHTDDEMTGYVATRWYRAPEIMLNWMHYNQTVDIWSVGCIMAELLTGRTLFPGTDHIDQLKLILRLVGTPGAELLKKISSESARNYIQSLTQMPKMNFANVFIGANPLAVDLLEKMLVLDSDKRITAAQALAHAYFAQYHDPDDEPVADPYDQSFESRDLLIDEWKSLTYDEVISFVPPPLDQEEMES
Outline: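 Enzyme (200 ng/mL solution) was preincubated 2 h at RT with compound solutions of 1, 0.1, 0.01 or 0.001 μg/mL, and inhibition was read indirectly via MAPKAP-K2 activation/phosphorylation. After a 1 h RT reaction and 1 h protease development, phosphorylation was derived from the coumarin/fluorescein emission ratio.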

c-Src = c-Src (Homo sapiens (Human), UniProt P12931); assay: c-Src enzyme inhibition, Z-LYTE FRET; type: biochemical
c-Src, sequence (P12931 whole entry, looked up): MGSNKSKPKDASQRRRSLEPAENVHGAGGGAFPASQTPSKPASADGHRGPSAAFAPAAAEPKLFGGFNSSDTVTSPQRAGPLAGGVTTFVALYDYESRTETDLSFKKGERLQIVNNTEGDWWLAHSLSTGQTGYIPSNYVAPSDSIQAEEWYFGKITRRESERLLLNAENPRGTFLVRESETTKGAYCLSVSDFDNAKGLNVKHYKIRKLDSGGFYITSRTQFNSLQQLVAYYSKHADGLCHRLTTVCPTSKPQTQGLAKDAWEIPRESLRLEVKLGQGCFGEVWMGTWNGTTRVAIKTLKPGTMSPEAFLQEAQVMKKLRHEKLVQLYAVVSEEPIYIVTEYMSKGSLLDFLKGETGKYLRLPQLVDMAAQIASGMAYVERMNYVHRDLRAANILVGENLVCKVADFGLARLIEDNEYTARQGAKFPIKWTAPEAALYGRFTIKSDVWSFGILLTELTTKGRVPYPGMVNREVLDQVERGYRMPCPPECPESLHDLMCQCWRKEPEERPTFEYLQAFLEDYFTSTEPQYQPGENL
Outline: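 Human Syk and c-Src (enzyme at 2000 or 3000 ng/mL respectively, pre-dilution) preincubated 2 hr at RT with compound at 1, 0.1, 0.01 or 0.001 μg/mL; FRET peptide added with ATP (60 μM Syk, 800 μM c-Src; solution concentrations), 1 hr. Protease development 1 hr; phosphorylation from coumarin/fluorescein emission ratio.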

Jurkat cells = assay: (r) Cell cytotoxicity assay; type: cell-based, human; conditions: 24 hours
Outline: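 Jurkat cells (1×10^5/well, RPMI + 10% FBS) exposed to compound at 20, 5 or 1 μg/mL final (1.0% DMSO control) for 24 h at 37° C., 5% CO2. Then stained with 7.5 μg/mL propidium iodide for 15 min. % viability = PI-negative cells by flow cytometry, normalized to DMSO.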

non-mutant kinases = assay: KinomeScan selectivity scores; type: binding; conditions: for number of individual kinase hits S(1): % Ctrl <1; for number of individual kinase hits S(10): % Ctrl <10; for number of individual kinase hits S(35): % Ctrl <35; for KinomeScan Selectivity Score S(10): non-mutant kinases with % Ctrl <10 / kinases tested; for KinomeScan Selectivity Score S(35): non-mutant kinases with % Ctrl <35 / kinases tested
Excerpt: as §1

[2] = test system: Escherichia coli, WP2 uvrA; assay: Bacterial reverse mutation screen
[3] = test system: Salmonella typhimurium, strains TA1535, TA1537, TA98 and TA100; assay: Bacterial reverse mutation screen
[4] = plate incorporation, presence and absence of S-9 mix

C#Cc1cc(Nc2nccc(Oc3ccc(NC(=O)Nc4cc(C(C)C)nn4-c4ccc(C)cc4)c4ccccc34)n2)cc(C(=O)NCCN2CCOCC2)c1 [Reference Compound B, 3-ethynyl-5-((4-((4-(3-(3-isopropyl-1-(p-tolyl)-1H-pyrazol-5-yl)ureido)naphthalen-1-yl)oxy)pyrimidin-2-yl)amino)-N-(2-morpholinoethyl)benzamide, reference compound]
% Parent Remaining ([1]; 0 min): 100% | % Parent Remaining ([1]; 60° C., 297 min): 79% | % Parent Remaining ([1]; 60° C., 1429 min): 18% | decomposition under the conditions of the experiment ([1]; 60° C.): substantial decomposition

COc1cc(Nc2cc(Oc3ccc(NC(=O)Nc4cc(C(C)(C)C)cc(NS(C)(=O)=O)c4OC)c4ccccc34)ccn2)cc(OC)c1C(=O)NCCOCCOCCOP(=O)(O)O [Example 47, 2-(2-(2-(4-((4-((4-(3-(5-(tert-butyl)-2-methoxy-3-(methylsulfonamido)phenyl)ureido)-naphthalen-1-yl)oxy)pyridin-2-yl)amino)-2,6-dimethoxybenzamido)ethoxy)ethoxy)ethyl dihydrogen phosphate]
IC50 (Syk): 8 nM | effect on the binding of B-Raf to its standard ligand (B-Raf): did not have any significant effect | effect on the binding of B-Raf (V600E) to its standard ligand (B-Raf (V600E)): did not have any significant effect | IC50 (p38 MAPKα (MAPK14)): 4 nM | IC50 (c-Src): 15 nM | % Viability at 1 μg/mL (Jurkat cells): 91.2% | % Viability at 5 μg/mL (Jurkat cells): 96.0% | % Viability at 20 μg/mL (Jurkat cells): 97.8% | number of individual kinase hits S(1) (non-mutant kinases; 50 nM): 0 | number of individual kinase hits S(10) (non-mutant kinases; 50 nM): 17 | number of individual kinase hits S(35) (non-mutant kinases; 50 nM): 55 | KinomeScan Selectivity Score S(10) (non-mutant kinases; 50 nM): 0.042 | KinomeScan Selectivity Score S(35) (non-mutant kinases; 50 nM): 0.136 | number of individual kinase hits S(1) (non-mutant kinases; 500 nM): 30 | number of individual kinase hits S(10) (non-mutant kinases; 500 nM): 90 | number of individual kinase hits S(35) (non-mutant kinases; 500 nM): 128 | KinomeScan Selectivity Score S(1) (non-mutant kinases; 500 nM, non-mutant kinases with % Ctrl <1 / kinases tested): 0.074 | KinomeScan Selectivity Score S(10) (non-mutant kinases; 500 nM): 0.223 | KinomeScan Selectivity Score S(35) (non-mutant kinases; 500 nM): 0.318 | % Parent Remaining ([1]; 0 min): 100% | % Parent Remaining ([1]; 60° C., 317 min): 104% | % Parent Remaining ([1]; 60° C., 1450 min): 89%

COc1cc(Nc2cc(Oc3ccc(NC(=O)Nc4cc(C(C)(C)C)cc(NS(C)(=O)=O)c4OC)c4ccccc34)ccn2)ccc1P(C)(=O)O [Example 44, (4-((4-((4-(3-(5-(tert-Butyl)-2-methoxy-3-(methylsulfonamido)phenyl)ureido)naphthalen-1-yl)oxy)pyridin-2-yl)amino)-2-methoxyphenyl)(methyl)phosphinic acid]
IC50 (Syk): 17 nM | effect on the binding of B-Raf to its standard ligand (B-Raf): did not have any significant effect | effect on the binding of B-Raf (V600E) to its standard ligand (B-Raf (V600E)): did not have any significant effect | IC50 (p38 MAPKα (MAPK14)): 11 nM | IC50 (c-Src): 20 nM | % Viability at 1 μg/mL (Jurkat cells): 93.3% | % Viability at 5 μg/mL (Jurkat cells): 90.1% | % Viability at 20 μg/mL (Jurkat cells): 92.2% | % Parent Remaining ([1]; 0 min): 100% | % Parent Remaining ([1]; 60° C., 1439 min): 98% | toxicity of the test item to the bacteria (mean colony count) ([2]; 5000 μg/plate in WP2 uvrA, absence of S-9 mix): reduction in the mean colony count | mutagenic effects (revertant numbers) [2, 4]: absence of any mutagenic effects | toxicity of the test item to the bacteria (mean colony count) ([3]; at the highest doses (500-5000 μg/plate) in some strains): reduction in the mean colony count | mutagenic effects (revertant numbers) [3, 4]: absence of any mutagenic effects
